Results taken from PMC7984888, “Inhibitory Activity of Pyrroloisoxazolidine Derivatives against Chlamydia trachomatis” (BioMed Research International, 2021).

Legend:
C. trachomatis L2 [1] = experiment: Withdrawal assay; assay type: cell-based, Chlamydia trachomatis; conditions: progeny EBs at 36 hpi, compared with 36 hpi sample
Method: HeLa cells seeded in 48-well plate were infected with C. trachomatis L2 at an MOI of 0.2 and simultaneously treated with 2, 8, or 32 μM of compound. At 2, 12, 24, and 36 hpi, infected cells were washed twice to remove residual inhibitor, and fresh medium was added. At 36 hpi, the production of infectious progeny EBs and percent inhibition data were determined as above.  Figure 6 Withdrawal assay. (a) HeLa cells infected with C. trachomatis L2 were simultaneously treated with 2, 8, or 32 μM individual compound. The compound was removed at 2, 12, 24, or 36 hpi, and the production of progeny EBs was determined at 36 hpi. (b–d) Percent inhibition of progeny EBs was calculated based on data in compound-treated samples relative to DMSO-treated control. Data are presented as mean ± SD of three independent assays. ∗p < 0.05, ∗∗p < 0.01, compared with each 36 hpi positive control sample by Student's t-tests.

[2] = test system: Chlamydia trachomatis L2 EBs; experiment: Elementary body pretreatment assay; assay type: cell-based; conditions: for EB entry efficiency after EB pretreatment for 4 h: 32 μM, 4°C; for EB counts that enter into host cells after EB pretreatment for 1 h: 2, 8 and 32 μM, 37°C and 4°C
Method: Chlamydia trachomatis L2 EBs suspended in SPG at 4 x 10^5 IFU/mL were exposed to 2, 8, or 32 μM individual compound at 37°C or 4°C for indicated times. EBs then were washed twice to eliminate the residual chemical and were immediately loaded onto HeLa cell monolayers at an MOI of 0.2. The infective EB count was measured by quantifying inclusion numbers at 36 hpi using immunofluorescence staining as above.  Figure 4 Compounds 1 and 2 weakly attenuated the EB infectivity. Chlamydia trachomatis L2 EBs were incubated with 2, 8, or 32 μM compound 1 (a) or 2 (b) at 37°C or 4°C for 1 or 4 h. After washes, EBs were used to infect HeLa cell. At 36 hpi, the inclusion was counted as described in “Materials and Methods.” Data are presented as mean ± SD of three independent assays. ∗∗p < 0.01, compared 4°C with 37°C by Student's t-tests. ^#p < 0.05, compared with each DMSO control sample by Student's t-tests.

C. trachomatis L2 [3] = experiment: Period incubation assay; assay type: cell-based, Chlamydia trachomatis; conditions: progeny EBs at 36 hpi; for Inhibitory effect, treated at 0-2 h: 32 μM, 0-2 h period; for Production of infectious progenies, compound added during the 12-24 h period: 2, 8 or 32 μM
Method: HeLa cells seeded in 48-well plate were infected with C. trachomatis L2 at an MOI of 0.2 and treated with 2, 8, or 32 μM of compound during 0-2, 2-12, 12-24, and 24-36 h period. At 36 hpi, the production of infectious progeny EBs and percent inhibition data were determined as above.  Figure 7 Period incubation assay. (a) HeLa cells infected with C. trachomatis L2 were treated with 2, 8, or 32 μM individual compound for indicated times. The production of progeny EBs was determined at 36 hpi. (b–d) Percent inhibition of progeny EBs was calculated based on data in compound-treated samples relative to DMSO-treated control. Data are presented as mean ± SD of three independent assays.

C. trachomatis L2 [4] = experiment: Host cell pretreatment assay; assay type: cell-based, Chlamydia trachomatis; conditions: 2, 8 and 32 μM, 37°C, 1 h (also 4 h) prior to infection
Method: Cells seeded in 48-well plate were incubated with 2, 8, or 32 μM individual compound at 37°C for indicated times. After twice washing with SPG to remove residual compound, cells were infected with EBs at an MOI of 0.2. At 36 hpi, the inclusion count in each well was determined by immunofluorescence staining as above.
Chlamydia trachomatis has a unique EB/RB biphasic life cycle, which offers the infection steps and the intracellular proliferation period for therapeutic intervention. To explore whether the compounds affected the chlamydial infection steps, the HeLa cells or EBs were pretreated with compound prior to infection, and then the influence on EB entry efficiency was analyzed by counting inclusion numbers. Due to the relative easier for culture and shorter developmental cycle, C. trachomatis L2 is commonly represented as a laboratory model for C. trachomatis in cell culture research and is picked for our subsequent mechanism study.
Figure 3 Host cells were not involved in the compounds' antichlamydial activity. HeLa cells were incubated with 2, 8, or 32 μM compound 1 (a) or 2 (b) at 37°C for 1 or 4 h. After washes, cells were infected with EBs. At 36 hpi, the inclusion was counted as described in “Materials and Methods.” Data are presented as mean ± SD of three independent assays.

C. trachomatis L2 [5] = experiment: Later treatment assay; assay type: cell-based, Chlamydia trachomatis; conditions: 2, 8 or 32 μM, progeny EBs at 36 hpi, compared with 0 hpi sample
Method: HeLa cells seeded in 48-well plate were infected with C. trachomatis L2 at an MOI of 0.2 and were treated with 2, 8, or 32 μM of compound at 0, 2, 12, and 24 hpi. At 36 hpi, cells were collected, and the production of infectious progeny EBs was determined as described above. Percent inhibition was calculated based on progeny EB count in compound-treated samples relative to DMSO-treated negative control.  Figure 5 Later treatment assay. (a) HeLa cells infected with C. trachomatis L2 were treated with 2, 8, or 32 μM individual compound at 0, 2, 12, or 24 hpi. The production of progeny EBs was determined at 36 hpi. (b–d) Percent inhibition of progeny EBs was calculated based on data in compound-treated samples relative to DMSO-treated control. Data are presented as mean ± SD of three independent assays. ∗∗p < 0.01, compared with each 0 hpi positive control sample by Student's t-tests.

## c1ccc(C2C3CC(c4ccccc4)N(c4ccccc4)C3ON2c2ccccc2)cc1 (stereo not shown) [Compound 1]
C. trachomatis L2 [1]
  Inhibitory effect when chemical was removed after 24 hpi: relatively well preserved
  Inhibitory effect when chemical was removed before 12 hpi: significantly reduced
[2]
  EB entry efficiency after EB pretreatment for 4 h: slightly dropped
  EB counts that enter into host cells after EB pretreatment for 1 h: did not change
C. trachomatis L2 [3]
  Inhibitory effect, treated at 0-2 h: weak inhibitory effect
  Production of infectious progenies, compound added during the 12-24 h period: significantly inhibited
  Intracellular chlamydial growth, 2-12 h period treatment: partially prevented
  Infectious progeny EBs, 24-36 h period incubation: partially inhibited
C. trachomatis L2 [4]
  Formation of chlamydial inclusions after pretreatment of HeLa cells: did not reduce
C. trachomatis L2 [5]
  Antichlamydial activity when chemical was added at 24 hpi: dramatically dropped
  Antichlamydial activity when chemical was added before 12 hpi: maintained

## Clc1ccc(N2C(c3ccccc3)CC3C(c4ccccc4)N(c4ccccc4)OC32)cc1 (stereo not shown) [Compound 2]
C. trachomatis L2 [1]
  Inhibitory effect when chemical was removed after 24 hpi: relatively well preserved
  Inhibitory effect when chemical was removed before 12 hpi: significantly reduced
[2]
  EB entry efficiency after EB pretreatment for 4 h: slightly dropped
  EB counts that enter into host cells after EB pretreatment for 1 h: did not change
C. trachomatis L2 [3]
  Inhibitory effect, treated at 0-2 h: weak inhibitory effect
  Production of infectious progenies, compound added during the 12-24 h period: significantly inhibited
  Intracellular chlamydial growth, 2-12 h period treatment: partially prevented
  Infectious progeny EBs, 24-36 h period incubation: partially inhibited
C. trachomatis L2 [4]
  Formation of chlamydial inclusions after pretreatment of HeLa cells: did not reduce
C. trachomatis L2 [5]
  Antichlamydial activity when chemical was added at 24 hpi: dramatically dropped
  Antichlamydial activity when chemical was added before 12 hpi: maintained
